Reference: patent US20030171545A1, “Novel Protein” (priority 1999, published 2003)
Entries after “also recorded” stand apart in the source; their conditions may differ. One block for each compound: values may come before it.

Tests used:
[1] = test system: Mock transfected CHO cells; experiment: FLIPR intracellular calcium response to LTB4, mock transfected CHO cells; type: cell-based; settings: LTB4 10^-10 to 10^-7 M, normalised to luciferase
Procedure: (§1) […] total DNA was transfected into CHO cells using the following transfection mix: 5 μg BLTR, pcDNA3 as needed to keep constant the amount of total DNA used, 1 μg pCMV-luciferase and BLTR-2 at various concentration. Responses to LTB4 (between 10^−10 and 10^−7 M) were measured using a FLIPR assay (Fluorescence Imaging Plate Reader—Molecular Devices) and values were normalised relative to the luciferase reading.

[2] = target: T1, BLTR (Homo sapiens, UniProt Q15722); experiment: FLIPR intracellular calcium response to LTB4, CHO cells transfected with BLTR; type: cell-based; settings: LTB4 10^-10 to 10^-7 M
T1 construct: expressed in transfected cells; host or cells: CHO
T1 sequence (Q15722 whole entry): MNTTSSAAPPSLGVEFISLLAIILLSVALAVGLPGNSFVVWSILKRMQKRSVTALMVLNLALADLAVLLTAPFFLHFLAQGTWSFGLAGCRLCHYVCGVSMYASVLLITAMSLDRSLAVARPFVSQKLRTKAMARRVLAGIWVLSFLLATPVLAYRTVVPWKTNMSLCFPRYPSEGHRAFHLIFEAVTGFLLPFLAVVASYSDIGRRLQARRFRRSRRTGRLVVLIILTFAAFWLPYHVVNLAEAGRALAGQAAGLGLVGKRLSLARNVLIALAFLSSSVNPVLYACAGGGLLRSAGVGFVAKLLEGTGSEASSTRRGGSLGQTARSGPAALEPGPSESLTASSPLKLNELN
Procedure: as §1

[3] = test system: LTRGW1; experiment: FLIPR intracellular calcium response to LTB4, CHO cells transfected with LTRGW1 alone; type: cell-based, human
Procedure: […] Responses to LTB4 (between 10^−10 and 10^−7 M) were measured using a FLIPR assay (Fluorescence Imaging Plate Reader—Molecular Devices) and values were normalised relative to the luciferase reading.

[4] = test system: BLTR/LTRGW1; experiment: FLIPR intracellular calcium response to LTB4, CHO cells co-transfected with BLTR and LTRGW1; type: cell-based, human
Procedure: as §1

[5] = target: T2, BLTR and LTRGW1 co-expressed (Homo sapiens, UniProt Q15722+Q9NPC1); experiment: [3H]LTB4 binding to membranes of transfected CHO cells, scintillation proximity assay; settings: [3H]LTB4, membranes of transfected CHO cells; compared with BLTR or LTRGW1 alone; FIG. 2
T2 construct: expressed in transfected cells; host or cells: CHO
T2 sequence (Q15722 whole entry, one chain of several): as the sequence (Q15722 whole entry) above
Procedure: CHO cells were transfected with DNA as described in Example 1. [^3H] LTB4 binding to membrane preparations from transfected cells was measured using wheat germ agglutinin beads in a scintillation proximity assay. The assay was carried out in 50: g Hepes 20: g MgCl2 in a total assay volume of 100: g. [^3H] LTB4 was used to measure total binding. [^3H] LTB4 was then displaced with unlabelled LTB4 to measure non-specific binding (NSB). The binding of LTB4 to cells expressing BLTR cells co-expressing BLTR and LTRGW1 and cells expressing LTRGW1 is illustrated in FIG. 2.

[6] = target: T3, LTRGW1 (Homo sapiens, UniProt Q9NPC1); settings: leukotriene binding to LTRGW1; Kamohara et al; cited from earlier work
T3 sequence (Q9NPC1 1-358): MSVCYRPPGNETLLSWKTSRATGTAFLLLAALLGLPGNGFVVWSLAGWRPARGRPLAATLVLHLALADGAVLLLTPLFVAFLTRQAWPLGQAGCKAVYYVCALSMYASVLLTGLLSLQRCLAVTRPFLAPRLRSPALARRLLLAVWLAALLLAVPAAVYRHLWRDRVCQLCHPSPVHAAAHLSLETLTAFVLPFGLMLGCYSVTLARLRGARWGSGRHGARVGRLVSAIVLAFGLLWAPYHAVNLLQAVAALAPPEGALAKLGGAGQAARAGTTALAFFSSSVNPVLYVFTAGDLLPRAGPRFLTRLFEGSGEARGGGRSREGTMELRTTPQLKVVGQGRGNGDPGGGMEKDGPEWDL

[7] = target: T3, LTRGW1; settings: Kamohara et al; cited from earlier work
[8] = target: T3, LTRGW1; settings: Yokomizo et al; cited from earlier work

Response to LTB4 [2]: Active | LTB4 binding to cells co-expressing BLTR and LTRGW1 [5]: enhancement
SMILES: CCCCC/C=C\C[C@@H](O)/C=C/C=C/C=C\[C@@H](O)CCCC(=O)O [LTB4]
Response to LTB4 [1]: Inactive | Response to LTB4 ([3]; CHO cells transfected with LTRGW1(274)): Inactive | Response to LTB4 ([3]; CHO cells transfected with LTRGW1(275)): Inactive | Response to LTB4 ([3]; CHO cells transfected with LTRGW1(276)): Inactive | Mobilisation of intracellular calcium in response to LTB4 ([3]; LTRGW1 expressed alone in CHO cells): does not induce a detectable mobilisation of intracellular calcium | Response to LTB4 ([4]; CHO cells transfected with BLTR/LTRGW1(276), FLIPR): Active | Response of BLTR to LTB4 when LTRGW1 is co-expressed ([4]; compared with BLTR alone, increase proportional to amount of LTRGW1 in transfection mix, FIG. 1): increased | Forskolin-stimulated intracellular cAMP accumulation [6]: inhibition | Chemotaxis [7]: induces chemotaxis | Cellular calcium [8]: increases cellular calcium; also recorded: increases intracellular calcium

SMILES: CCCCCCCC[C@H](O)/C=C/C=C\C=C\[C@H](O)CCCC(=O)O [LTB3]
Forskolin-stimulated intracellular cAMP accumulation [6]: inhibition

SMILES: CCCCC/C=C\C[C@H](O)/C=C/C=C/C=C\[C@@H](O)CCCC(=O)O [12-epi-LTB4]
Forskolin-stimulated intracellular cAMP accumulation [6]: inhibition

SMILES: CC/C=C\C/C=C\C[C@@H](O)/C=C/C=C/C=C\[C@@H](O)CCCC(=O)O [LTB5]
Forskolin-stimulated intracellular cAMP accumulation [6]: inhibition
